{
  "source": "patent US12564596B2",
  "about": "“Agents and methods for modulating pathogen activity” (Griffith University, priority 2018, dated 2026)",
  "key": {"[1]": {"tested_on": "HIV strains NL4-3 and NLAD8 adherence to human PEX cells", "assay": "Fluorometric adherence assay, HIV to PEX cells", "format": "cell-based", "details": "for decrease of cell association to PEX cells: 100 μM; for reduction in cell adherence to PEX cells: lowest concentration, printed 'down to 100 μM'", "description": "The ability of carbamazepine to block adherence of HIV to human PEX cells was evaluated using a fluorometric adherence assay, essentially as described by Jen et al. (2013, supra). In this regard, PEX cells were seeded to a 96-well plate and allowed to grow to confluence. Fluorescently labelled HIV (10 ng of p24 HIV capsid protein equivalent of HIV in 100 μL of F12 culture media) were then used to challenge (2 h) PEX cells simultaneously with, or without, various concentrations of carbamazepine (as noted). Fluorescence (485/528 nm) intensity, corresponding to HIV cell adherence, was recorded using a Synergy HT Multi-mode Microplate Reader (BioTek Instruments, Winooski, VT USA). The assay was performed in triplicate on 3 separate occasions. A Kruskal-Wallis k-sample analysis of variance was used to determine the statistical significance of the calculated mean of viral-cell adherence."}, "[2]": {"target": "T1, human recombinant I-domain (rI-domain) of CD11b (Homo sapiens, UniProt P11215)", "T1 construct": "made in house", "T1 sequence (P11215 150-328 limits assumed)": "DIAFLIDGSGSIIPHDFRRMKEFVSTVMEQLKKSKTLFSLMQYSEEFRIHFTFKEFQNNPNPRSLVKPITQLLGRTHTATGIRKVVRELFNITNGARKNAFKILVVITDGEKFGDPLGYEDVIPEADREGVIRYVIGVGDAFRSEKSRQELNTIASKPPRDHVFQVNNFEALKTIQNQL", "assay": "Surface plasmon resonance binding to human rI-domain (KD)", "details": "SPR, single cycle kinetics, 25° C., PBS; read-out: KD"}, "[3]": {"tested_on": "N. gonorrhoeae in infected PEX cells", "assay": "Survival assay of N. gonorrhoeae in infected PEX cells", "format": "cell-based, Neisseria gonorrhoeae", "from_the_text": "N. gonorrhoeae strains used in survival assays included MS11 Schoolnik et al (1984, supra), Segal et al (1985, supra) and 1291 Apicella et al (1974, J. Infect Dis. 130(6):619-25), Dudas and Apicella (1988, Infect Immun. 56(2):499-504), which are commonly used to study gonococcal pathogenesis. Also examined were a panel of low-passage clinical isolates (FIG. 14; i.e., N. gonorrhoeae strains LT38097, UT38885, PID-26, and SK92-679). Strains 1291 and LT38097 are male urethral isolates; strains MS11 and UT38885 were obtained from women with uncomplicated gonococcal cervicitis, strain PID-26 was obtained from a patient with pelvic inflammatory disease; and strain SK92-679 is a blood isolate from a patient with disseminated infection. Antibiotic-resistant N. gonorrhoeae strains tested were obtained from Public Health England and comprised WHO-L, WHO-M, WHO-X (H041), WHO-Y (F89), and WHO-Z (A8806), see FIG. 15. For use, bacteria were harvested from overnight (37° C., 5% CO2), GC-IsoVitaleX agar plate cultures and enumerated spectrophotometrically, as previously described Edwards et al (2000, Infect Immun 68(9):5354-63). Infection studies were performed using a multiplicity of infection of 100 Edwards et al (2000, Infect Immun 68(9):5354-63).\nPEX cells were challenged with the noted N. gonorrhoeae strains for 90 min. For single dose survival assays, the infection medium was then removed, cells were rinsed thrice, and fresh medium containing 1% DMSO (vehicle control), carbamazepine ([…], as noted), or ceftriaxone (0.1 μg/mL or 0.5 μg/mL, positive control) was added. Infections were then allowed to proceed for an additional 24 h or 48 h. At the indicated times post-treatment, the infection medium was removed, the PEX cell monolayers were rinsed thrice, lysed, and viable N. gonorrhoeae were enumerated by counting colony forming units after plating serial dilutions of the PEX cell lysates (for example see 12). In some experiments (i.e., two dose survival assays for example see FIG. 13), a second dose of carbamazepine was added at 24 hours-post addition of the first carbamazepine dose. Infections were then allowed to proceed for an additional 24 h before plating the PEX cell lysate, as above. For either assay, the percentage of N. gonorrhoeae that survived carbamazepine or antibiotic treatment was determined as a function of bacteria that survived DMSO (vehicle control) treatment (set to 100%). […] To investigate whether the small percentage of the surviving bacterial cells have developed resistance to the treatment, sequential infection assays were conducted. Bacteria were harvested from the CFU count plates and then used to inoculate a new assay. […] All assays were performed in triplicate on 3 separate occasions with the noted bacterial strains. A Kruskal-Wallis k-sample analysis of variance was used to determine the statistical significance of bacterial survival.\nThe ability of a single dose of methyldopa was evaluated to inhibit survival of low-passage N. gonorrhoeae isolates in PEX cells challenged with those isolates. To establish infection, PEX cells were challenged with N. gonorrhoeae for 90 min using the noted low-passage isolates. Infections were then allowed to proceed for an additional 24 h or 48 h in the presence or absence of DMSO (1%, vehicle control), methyldopa (10 μM, Md), or ceftriaxone (0.5 μg/mL, positive control, Cfx)."}, "[4]": {"tested_on": "primary T-cell derived WITO HIV interaction with human rI-domain", "assay": "SPR 1:1 competition assay, WITO HIV binding to rI-domain", "details": "for % inhibition: 1:1 competition, 1 μM, 1 µM", "description": "For competition analysis SPR of the HIV interaction with human rI-domain, primary T-cell derived WITO HIV was immobilized on a Cl sensor chip surface. Human rI-domain, drug or drug and human rI-domain were flowed at 1 μM over the immobilized HIV and the response units of the interactions were recorded. Any drug that could not compete with the virus or pilin binding to the rI-domain was also discarded. Remaining drugs were evaluated for known safety in humans and known therapeutic concentrations to determine if the drug would be tested, and at what concentrations, in in vitro cell models. All SPR sensorgrams and results plots were analyzed with Biacore S200 Evaluation Software (GE Healthcare Life Sciences)."}},
  "data": [
    {"smiles": "NC(=O)N1c2ccccc2C=Cc2ccccc21", "note": "[carbamazepine, 5H-dibenzo[b,f]azepine-5-carboxamide]", "values": [
      {"measurement": "decrease of cell association to PEX cells", "setting": "[1]; NL4-3, 2 h", "result": "88.53%±0.37"},
      {"measurement": "reduction in cell adherence to PEX cells", "setting": "[1]; NL4-3", "result": "59.65%±0.41"},
      {"measurement": "HIV adherence to PEX cells with increasing concentrations", "setting": "[1]; NL4-3 and NLAD8, 2 h", "result": "dose-dependent decrease"},
      {"measurement": "decrease of cell association to PEX cells", "setting": "[1]; NLAD8, 2 h", "result": "87.98%±0.48"},
      {"measurement": "reduction in cell adherence to PEX cells", "setting": "[1]; NLAD8", "result": "59.65%±0.24"},
      {"measurement": "Kd", "setting": "[2]", "result": 2.12, "unit": "nM"},
      {"measurement": "killing of gonococci", "setting": "[3]; by 24 hours, concentrations of 10 μM or higher", "result": "greater than 99.95%"},
      {"measurement": "gonococcal killing", "setting": "[3]; low-passage isolates, 24 h, 10 μM single dose", "result": "Greater than 99%"},
      {"measurement": "gonococcal killing", "setting": "[3]; multidrug-resistant strains, 24 h, 10 μM single dose", "result": "Greater than 99%"},
      {"measurement": "gonococcal killing", "setting": "[3]; strain MS11, by 24 h, single 100 nM dose", "result": "Greater than 99%"},
      {"measurement": "gonococcal killing", "setting": "[3]; strain MS11, by 48 h, 2 100 nM doses applied 24 h apart", "result": "greater than 99.95%"},
      {"measurement": "gonococcal killing", "setting": "[3]; strain MS11, concentrations greater than or equal to 10 nM, 24 h or 48 h", "result": "Greater than 98%"},
      {"measurement": "gonococcal killing", "setting": "[3]; strain MS11, sequential infection, following the second infection, 10 μM, 24 h", "result": 100, "unit": "%"},
      {"measurement": "% inhibition", "setting": "[4]; listed as CARBAMAZEPINE", "result": 97.09, "unit": "%"},
      {"measurement": "% inhibition", "setting": "[4]; listed as Carbamazepine", "result": "~97", "unit": "%"},
      {"measurement": "Block HIV in SPR", "setting": "[4]; direct competition SPR", "result": "Yes"},
      {"measurement": "Drug RU", "setting": "[4]; drug alone flowed at 1 μM over immobilized WITO HIV", "result": 0.227, "unit": "RU"},
      {"measurement": "Pilin + Drug RU", "setting": "[4]; drug and human rI-domain flowed at 1 μM, 1:1", "result": 1.772, "unit": "RU"}
    ]}
  ]
}
